From ChEMBL document CHEMBL1142026, “Isoindolinone-based inhibitors of the MDM2-p53 protein-protein interaction” (Bioorg Med Chem Lett, 2005) come the findings set out here.

The structures appear in SMILES notation.

In one experiment the target is Tumour suppressor p53/oncoprotein Mdm2 (Homo sapiens, UniProt Q00987). The experiment can be described thus: (§1) Inhibitory concentration against MDM2-p53 interaction in SJSA human sarcoma cells. It counts as cell-based, SJSA-1.
Sequence of Tumour suppressor p53/oncoprotein Mdm2 (Homo sapiens, UniProt Q00987) (P04637 whole entry): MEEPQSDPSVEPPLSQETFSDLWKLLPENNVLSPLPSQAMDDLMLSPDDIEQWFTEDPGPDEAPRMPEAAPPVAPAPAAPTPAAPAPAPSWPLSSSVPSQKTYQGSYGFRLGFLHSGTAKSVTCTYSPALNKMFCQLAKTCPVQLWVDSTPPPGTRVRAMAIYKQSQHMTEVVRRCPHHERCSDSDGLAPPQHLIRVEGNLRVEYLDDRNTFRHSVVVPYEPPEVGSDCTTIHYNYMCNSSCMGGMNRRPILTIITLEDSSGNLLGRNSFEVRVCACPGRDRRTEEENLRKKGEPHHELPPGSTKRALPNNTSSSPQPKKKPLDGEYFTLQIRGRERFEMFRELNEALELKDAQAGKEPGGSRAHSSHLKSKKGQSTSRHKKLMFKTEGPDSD
Sequence of Tumour suppressor p53/oncoprotein Mdm2 (Homo sapiens, UniProt Q00987) (Q00987 whole entry): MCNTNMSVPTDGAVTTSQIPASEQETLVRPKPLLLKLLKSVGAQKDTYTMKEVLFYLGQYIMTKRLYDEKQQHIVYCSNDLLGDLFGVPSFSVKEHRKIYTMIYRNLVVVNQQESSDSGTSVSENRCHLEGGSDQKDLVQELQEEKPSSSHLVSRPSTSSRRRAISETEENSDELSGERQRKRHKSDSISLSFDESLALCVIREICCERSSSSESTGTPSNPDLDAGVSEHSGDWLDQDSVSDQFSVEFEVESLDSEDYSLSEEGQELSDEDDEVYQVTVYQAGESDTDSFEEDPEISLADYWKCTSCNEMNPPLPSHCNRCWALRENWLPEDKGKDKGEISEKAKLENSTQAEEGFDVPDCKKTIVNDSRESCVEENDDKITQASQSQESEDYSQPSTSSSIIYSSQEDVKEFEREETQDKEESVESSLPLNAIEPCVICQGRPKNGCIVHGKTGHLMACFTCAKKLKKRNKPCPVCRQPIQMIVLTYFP
Conditions: not given
Turning to `CC(C)(C)c1ccc(COC2(c3ccccc3)c3ccccc3C(=O)N2Cc2ccccc2)cc1` (stereo in doubt; 5), the IC50 (commonly the concentration needed to halve the response being measured) was 92 µM.
Still for that read-out and setting: the result for `O=C1c2ccccc2C(OCCc2ccccn2)(c2ccc(Cl)cc2)N1Cc1ccccc1` (centres undefined) reads 26.2 µM.
The same measure, in the same setting: the result for `CCCN1C(=O)c2ccccc2C1(NC(=O)c1ccccc1)c1ccc(C(C)(C)C)cc1` (centres undefined) reads 66 µM; that for `CCCN1C(=O)c2ccccc2C1(OCc1cc(OC)c(O)c(OC)c1)c1ccccc1` (centres undefined), 82 µM.
On the same count and under the same terms, the result for `CCCN1C(=O)c2ccccc2C1(OCc1cc(OC)c(O)c(OC)c1)c1ccc(Cl)cc1` (centres undefined) reads 5.3 µM.
As to `COc1ccc(C(O)CNC2(c3ccccc3)c3ccccc3C(=O)N2Cc2ccccc2)cc1` (centres undefined), the midpoint of inhibition, the IC50, lay at 70 µM.
The same measure, in the same setting: the result for `CCCN1C(=O)c2ccccc2C1(NC(=O)c1ccc(C(C)(C)C)cc1)c1ccc(OCOCC[Si](C)(C)C)cc1` (centres undefined) reads 27 µM; that for `CCCOC1(c2ccccc2)c2ccccc2C(=O)N1CCC` (centres undefined), around 200 µM.
On the same count and under the same terms, the result for `CCCOC1(c2ccccc2)c2ccccc2C(=O)N1C(Cc1ccc(O)cc1)C(=O)OC` (centres undefined) reads 90 µM; that for `CC(=O)NCCN1C(=O)c2ccccc2C1(OCc1ccc(C(C)(C)C)cc1)c1ccccc1` (centres undefined), 14 µM.
As to `CCCN1C(=O)c2ccccc2C1(OCCCO)c1ccccc1` (centres undefined), the IC50 is above 500 µM.
Take `CCCN1C(=O)c2ccccc2C1(OCCCO)c1ccc(Cl)cc1` (centres undefined): inhibition was half-maximal at 16.4 µM (IC50).
On the same count and under the same terms, next, `O=C1c2ccccc2C(OCCCO)(c2ccc(Cl)cc2)N1Cc1ccccc1` (centres undefined): 15.9 µM.
Still for that read-out and setting: the result for `CC(=O)NCCN1C(=O)c2ccccc2C1(OCc1ccc(C(C)(C)C)cc1)c1ccc(Cl)cc1` (centres undefined) reads 91.4 µM; that for `CCCN1C(=O)c2ccccc2C1(OCCc1ccccn1)c1ccc(Cl)cc1` (centres undefined), 57 µM; that for `CC(C)(C)c1ccc(COC2(c3ccc(Cl)cc3)c3ccccc3C(=O)N2Cc2ccccc2)cc1` (centres undefined), 99 µM.
In turn, `CCCOC1(c2ccccc2)c2ccccc2C(=O)N1Cc1ccccc1` (centres undefined) showed an IC50 of around 200 µM.
Still for that read-out and setting: next, `CCCN1C(=O)c2ccccc2C1(OCc1ccc(C(C)(C)C)cc1)c1ccccc1` (centres undefined): above 500 µM; `COc1cc(COC2(c3ccc(Cl)cc3)c3ccccc3C(=O)N2CCNC(C)=O)cc(OC)c1O` (centres undefined): 76 µM.
Same read-out and setting: next, `COc1cc(COC2(c3ccc(Cl)cc3)c3ccccc3C(=O)N2Cc2ccccc2)cc(OC)c1O` (centres undefined): 42 µM; `COc1cc(COC2(c3ccccc3)c3ccccc3C(=O)N2Cc2ccccc2)cc(OC)c1O` (centres undefined): 17.9 µM.
The same measure, in the same setting: the result for `CCCNC1(c2ccccc2)c2ccccc2C(=O)N1Cc1ccccc1` (centres undefined) reads around 200 µM; that for `CCCN1C(=O)c2ccccc2C1(OCCc1ccccn1)c1ccccc1` (centres undefined), 100 µM.

In a further experiment the target is Tumour suppressor p53/oncoprotein Mdm2 (Homo sapiens, UniProt P04637+Q00987). The experiment is described as §1. In kind it is cell-based, SJSA-1. The settings on record: sjsa-1.
Sequence of Tumour suppressor p53/oncoprotein Mdm2 (Homo sapiens, UniProt P04637+Q00987) (P04637 whole entry): as the sequence (P04637 whole entry) above
Sequence of Tumour suppressor p53/oncoprotein Mdm2 (Homo sapiens, UniProt P04637+Q00987) (Q00987 whole entry): as the sequence (Q00987 whole entry) above
Regarding `CC(C)(C)c1ccc(COC2(c3ccccc3)c3ccccc3C(=O)N2Cc2ccccc2)cc1` (stereo in doubt; 2d), the IC50 is 92 µM.
